The source of these data is the supplement of paper PMC10307832.

What all share (experiment): relative viability (nuclei count vs DMSO), 5 days (fraction); higher = more cells survive
Compound in assay [1]: Cc1ccc(-n2nc(C(C)(C)C)cc2NC(=O)Nc2ccc(OCCN3CCOCC3)c3ccccc23)cc1 [Doramapimod] + CS(=O)(=O)CCNCc1ccc(-c2ccc3ncnc(Nc4ccc(OCc5cccc(F)c5)c(Cl)c4)c3c2)o1 [Lapatinib] (partner 2 µM)
The essentials: (§1)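 The day after seeding in 1536-well plates, lung cancer cell lines were treated by pin tool with a single drug, or with a fixed anchor-drug dose together with five library-drug doses (not always all listed) in √10 steps. After 5 days, a combined fix-and-stain solution (final 0.05% Triton X-100, 1% formaldehyde, 1 ug/ml Hoechst) was added. Nuclei counted on 4× images gave relative viability as treated counts over vehicle counts, reported as the median of duplicate plates.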

Compound in assay [2]: Cn1c(Nc2ccc(C(F)(F)F)cc2)nc2cc(Oc3ccnc(-c4ncc(C(F)(F)F)[nH]4)c3)ccc21 [RAF265] + Cc1cc(Nc2cc(N3CCN(C)CC3)nc(Sc3ccc(NC(=O)C4CC4)cc3)n2)n[nH]1 [Tozasertib] (partner 0.1 µM)
The essentials:
as §1

Compound in assay [3]: C1=CC=C2C(=C1)C=CC(=C2SSC3=C(C=CC4=CC=CC=C43)O)O [IPA-3] + C[C@@H](Oc1cc(-c2cnn(C3CCNCC3)c2)cnc1N)c1c(Cl)ccc(F)c1Cl [Crizotinib] (partner 1 µM)
The essentials: as §1

Compound in assay [4]: Cn1c(Nc2ccc(C(F)(F)F)cc2)nc2cc(Oc3ccnc(-c4ncc(C(F)(F)F)[nH]4)c3)ccc21 [RAF265] + C[C@]1(O)C[C@@H](c2nc(-c3ccc4ccc(-c5ccccc5)nc4c3)c3c(N)nccn32)C1 [Linsitinib] (partner 1 µM)
The essentials: as §1

With NCI-H2009, the relative viability in assay [1] (first compound 0.02 µM) was found to be 0.95; in assay [1] (first compound 0.06325 µM), 0.952; in assay [1] (first compound 0.2 µM), 1.13; in assay [1] (first compound 0.6325 µM) it was 0.234; in assay [1] (first compound 2 µM), 0.888; in assay [2] (first compound 0.01 µM), 0.758. In addition, the relative viability in assay [2] (first compound 0.03162 µM) was 0.721; in assay [2] (first compound 0.1 µM) it was 0.745; in assay [2] (first compound 0.3162 µM), 0.809; in assay [2] (first compound 1 µM) it was 0.476; in assay [3] (first compound 0.2 µM) it was 1.12; in assay [3] (first compound 0.6325 µM) it was 1. The relative viability in assay [3] (first compound 2 µM) amounted to 1.04; in assay [3] (first compound 6.325 µM), 0.915; in assay [3] (first compound 20 µM), 0.924; in assay [4] (first compound 0.01 µM) it was 1.23; in assay [4] (first compound 0.03162 µM), 1.12; in assay [4] (first compound 0.1 µM) it was 1.13. For the same cell line, the relative viability is 1.04 in assay [4] (first compound 0.3162 µM) and 0.788 in assay [4] (first compound 1 µM).

For the cell line NCI-H2023, the relative viability in assay [1] (first compound 0.02 µM) amounted to 0.79; in assay [1] (first compound 0.06325 µM), 0.636; in assay [1] (first compound 0.2 µM), 0.78; in assay [1] (first compound 0.6325 µM), 0.105; in assay [1] (first compound 2 µM), 0.807; in assay [2] (first compound 0.01 µM) it was 0.314. In addition, the relative viability in assay [2] (first compound 0.03162 µM) turned out to be 0.497; in assay [2] (first compound 0.1 µM), 0.466; in assay [2] (first compound 0.3162 µM), 0.286; in assay [2] (first compound 1 µM), 0.183; in assay [3] (first compound 0.2 µM), 0.714; in assay [3] (first compound 0.6325 µM), 0.58. For the same cell line, the relative viability in assay [3] (first compound 2 µM) was found to be 0.809; in assay [3] (first compound 6.325 µM) it was 0.735; in assay [3] (first compound 20 µM), 0.893; in assay [4] (first compound 0.01 µM), 0.588; in assay [4] (first compound 0.03162 µM), 0.743; in assay [4] (first compound 0.1 µM) it was 0.776. Also, the relative viability in assay [4] (first compound 0.3162 µM) amounted to 0.644; in assay [4] (first compound 1 µM), 0.424.

For NCI-H2085, the relative viability stood at 0.79 in assay [1] (first compound 0.02 µM); 0.764 in assay [1] (first compound 0.06325 µM); 0.749 in assay [1] (first compound 0.2 µM); 0.836 in assay [1] (first compound 0.6325 µM); 0.707 in assay [1] (first compound 2 µM); 0.965 in assay [2] (first compound 0.01 µM). Further, the relative viability in assay [2] (first compound 0.03162 µM) amounted to 0.706; in assay [2] (first compound 0.1 µM), 0.914; in assay [2] (first compound 0.3162 µM) it was 0.822; in assay [2] (first compound 1 µM), 0.558; in assay [3] (first compound 0.2 µM), 0.89; in assay [3] (first compound 0.6325 µM), 0.912. In addition, the relative viability in assay [3] (first compound 2 µM) stood at 0.876; in assay [3] (first compound 6.325 µM), 0.931; in assay [3] (first compound 20 µM), 0.995; in assay [4] (first compound 0.01 µM), 0.894; in assay [4] (first compound 0.03162 µM) it was 0.945; in assay [4] (first compound 0.1 µM), 0.938. The relative viability in assay [4] (first compound 0.3162 µM) is 0.98; in assay [4] (first compound 1 µM), 0.917.

For the cell line NCI-H2087, the relative viability is 1.06 in assay [1] (first compound 0.02 µM); 1.11 in assay [1] (first compound 0.06325 µM); 1.02 in assay [1] (first compound 0.2 µM); 0.869 in assay [1] (first compound 0.6325 µM); 0.961 in assay [1] (first compound 2 µM); 0.268 in assay [2] (first compound 0.01 µM). Besides, the relative viability in assay [2] (first compound 0.03162 µM) was found to be 0.266; in assay [2] (first compound 0.1 µM) it was 0.284; in assay [2] (first compound 0.3162 µM), 0.205; in assay [2] (first compound 1 µM), 0.152; in assay [3] (first compound 0.2 µM) it was 0.955; in assay [3] (first compound 0.6325 µM) it was 0.755. The relative viability in assay [3] (first compound 2 µM) came to 0.9; in assay [3] (first compound 6.325 µM) it was 0.791; in assay [3] (first compound 20 µM) it was 0.957; in assay [4] (first compound 0.01 µM), 0.827; in assay [4] (first compound 0.03162 µM) it was 0.844; in assay [4] (first compound 0.1 µM), 0.9. Further, the figures for the relative viability in assay [4] (first compound 0.3162 µM) and in assay [4] (first compound 1 µM) were 0.699 and 0.587, respectively.

For NCI-H2126, the relative viability was found to be 0.815 in assay [1] (first compound 0.02 µM); 0.811 in assay [1] (first compound 0.06325 µM); 0.781 in assay [1] (first compound 0.2 µM); 0.735 in assay [1] (first compound 0.6325 µM); 0.662 in assay [1] (first compound 2 µM); 0.905 in assay [2] (first compound 0.01 µM). The relative viability is 0.844 in assay [2] (first compound 0.03162 µM); 0.826 in assay [2] (first compound 0.1 µM); 0.881 in assay [2] (first compound 0.3162 µM); 0.607 in assay [2] (first compound 1 µM); 1.05 in assay [3] (first compound 0.2 µM); 0.983 in assay [3] (first compound 0.6325 µM). Besides, the relative viability in assay [3] (first compound 2 µM) was 1.05; in assay [3] (first compound 6.325 µM), 1.03; in assay [3] (first compound 20 µM), 1.14; in assay [4] (first compound 0.01 µM), 0.712; in assay [4] (first compound 0.03162 µM), 0.691; in assay [4] (first compound 0.1 µM), 0.743. In addition, the relative viability in assay [4] (first compound 0.3162 µM) came out at 0.574; in assay [4] (first compound 1 µM) it was 0.49.

Regarding NCI-H2228, the relative viability is 1.12 in assay [1] (first compound 0.02 µM); 0.926 in assay [1] (first compound 0.06325 µM); 1.12 in assay [1] (first compound 0.2 µM); 0.933 in assay [1] (first compound 0.6325 µM); 1.09 in assay [1] (first compound 2 µM); 0.329 in assay [2] (first compound 0.01 µM). The relative viability in assay [2] (first compound 0.03162 µM) is 0.235; in assay [2] (first compound 0.1 µM), 0.334; in assay [2] (first compound 0.3162 µM), 0.211; in assay [2] (first compound 1 µM), 0.131; in assay [3] (first compound 0.2 µM) it was 0.437; in assay [3] (first compound 0.6325 µM), 0.383. In addition, the relative viability in assay [3] (first compound 2 µM) came out at 0.439; in assay [3] (first compound 6.325 µM) it was 0.376; in assay [3] (first compound 20 µM), 0.597; in assay [4] (first compound 0.01 µM) it was 0.628; in assay [4] (first compound 0.03162 µM), 0.698; in assay [4] (first compound 0.1 µM), 0.409. In addition, the relative viability in assay [4] (first compound 0.3162 µM) amounted to 0.436; in assay [4] (first compound 1 µM), 0.327.

Turning to NCI-H2347, the relative viability in assay [1] (first compound 0.02 µM) amounted to 0.932; in assay [1] (first compound 0.06325 µM), 0.897; in assay [1] (first compound 0.2 µM) it was 0.969; in assay [1] (first compound 0.6325 µM), 0.67; in assay [1] (first compound 2 µM), 0.875; in assay [2] (first compound 0.01 µM), 0.653. The relative viability in assay [2] (first compound 0.03162 µM) was found to be 0.507; in assay [2] (first compound 0.1 µM) it was 0.809; in assay [2] (first compound 0.3162 µM), 0.436; in assay [2] (first compound 1 µM), 0.325; in assay [3] (first compound 0.2 µM), 0.834; in assay [3] (first compound 0.6325 µM) it was 0.749. In addition, the relative viability was found to be 0.724 in assay [3] (first compound 2 µM); 0.697 in assay [3] (first compound 6.325 µM); 0.708 in assay [3] (first compound 20 µM); 1.2 in assay [4] (first compound 0.01 µM); 0.923 in assay [4] (first compound 0.03162 µM); 0.924 in assay [4] (first compound 0.1 µM). Besides, the relative viability was 0.744 in assay [4] (first compound 0.3162 µM) and 0.544 in assay [4] (first compound 1 µM).
